Experimental data: patent publication US20250002480A1, “AMINOHETEROARYL KINASE INHIBITORS” (ALLORION THERAPEUTICS INC, priority 2021, published 2025)

How the values were obtained:
Format in all cases: biochemical
[1] = target: CDK6/Cyclin D1 (Homo sapiens, UniProt Q00534); assay: CDK6/Cyclin D1 in vitro kinase inhibition (Biological Example 1 of WO2022/111621)
Experimental: (§1) Biological activity for representative compounds of the present disclosure were tested according to those described in Biological Example 1 in PCT/CN2021/133429, published as WO2022/111621 on Jun. 2, 2022.

[2] = target: CDK9/Cyclin T1 (Homo sapiens, UniProt P50750); assay: CDK9/Cyclin T1 in vitro kinase inhibition (Biological Example 1 of WO2022/111621)
Chain of CDK9/Cyclin T1 (P50750 whole entry): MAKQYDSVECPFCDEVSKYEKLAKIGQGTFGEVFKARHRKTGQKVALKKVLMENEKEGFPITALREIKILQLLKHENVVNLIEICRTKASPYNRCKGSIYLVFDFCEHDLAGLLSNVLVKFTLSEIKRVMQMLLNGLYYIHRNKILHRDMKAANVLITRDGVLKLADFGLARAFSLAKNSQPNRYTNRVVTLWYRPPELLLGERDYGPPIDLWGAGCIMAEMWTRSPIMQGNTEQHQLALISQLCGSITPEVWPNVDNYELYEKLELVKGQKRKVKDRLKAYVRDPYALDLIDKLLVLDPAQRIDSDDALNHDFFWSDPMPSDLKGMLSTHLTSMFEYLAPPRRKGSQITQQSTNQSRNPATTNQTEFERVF
Chain of CDK9/Cyclin T1 (O60563 whole entry partner): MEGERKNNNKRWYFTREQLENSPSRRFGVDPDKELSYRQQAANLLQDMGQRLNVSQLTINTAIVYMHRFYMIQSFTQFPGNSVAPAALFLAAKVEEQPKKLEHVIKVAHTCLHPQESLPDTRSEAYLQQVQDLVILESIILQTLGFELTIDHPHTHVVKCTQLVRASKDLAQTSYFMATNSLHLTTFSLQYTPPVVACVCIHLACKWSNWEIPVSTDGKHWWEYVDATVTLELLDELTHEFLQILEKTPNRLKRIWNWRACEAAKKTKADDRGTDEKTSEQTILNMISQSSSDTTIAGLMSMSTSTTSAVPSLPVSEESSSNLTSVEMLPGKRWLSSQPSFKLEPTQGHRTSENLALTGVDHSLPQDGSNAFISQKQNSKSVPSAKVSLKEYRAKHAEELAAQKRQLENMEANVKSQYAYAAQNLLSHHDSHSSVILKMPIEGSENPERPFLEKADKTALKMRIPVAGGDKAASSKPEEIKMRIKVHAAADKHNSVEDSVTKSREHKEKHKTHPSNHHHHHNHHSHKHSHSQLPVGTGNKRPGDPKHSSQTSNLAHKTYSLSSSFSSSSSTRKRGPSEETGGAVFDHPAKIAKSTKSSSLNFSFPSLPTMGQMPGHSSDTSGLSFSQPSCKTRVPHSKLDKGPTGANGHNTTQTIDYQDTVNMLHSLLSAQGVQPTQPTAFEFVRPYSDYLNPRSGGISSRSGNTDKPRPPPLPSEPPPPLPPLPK
Experimental: as §1

[3] = target: CDK7/Cyclin H/MAT1 (Homo sapiens, UniProt P50613); assay: CDK7/Cyclin H/MAT1 in vitro kinase inhibition (Biological Example 1 of WO2022/111621)
Chain of CDK7/Cyclin H/MAT1 (P50613 whole entry): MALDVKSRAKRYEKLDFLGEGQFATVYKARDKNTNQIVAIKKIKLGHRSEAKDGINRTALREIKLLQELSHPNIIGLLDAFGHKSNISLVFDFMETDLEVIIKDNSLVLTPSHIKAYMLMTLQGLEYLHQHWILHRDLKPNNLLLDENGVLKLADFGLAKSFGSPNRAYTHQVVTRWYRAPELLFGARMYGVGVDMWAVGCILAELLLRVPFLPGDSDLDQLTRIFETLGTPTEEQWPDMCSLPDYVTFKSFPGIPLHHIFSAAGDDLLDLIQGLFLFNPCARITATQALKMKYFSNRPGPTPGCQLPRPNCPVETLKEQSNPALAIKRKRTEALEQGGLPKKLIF
Chain of CDK7/Cyclin H/MAT1 (P51946 whole entry partner): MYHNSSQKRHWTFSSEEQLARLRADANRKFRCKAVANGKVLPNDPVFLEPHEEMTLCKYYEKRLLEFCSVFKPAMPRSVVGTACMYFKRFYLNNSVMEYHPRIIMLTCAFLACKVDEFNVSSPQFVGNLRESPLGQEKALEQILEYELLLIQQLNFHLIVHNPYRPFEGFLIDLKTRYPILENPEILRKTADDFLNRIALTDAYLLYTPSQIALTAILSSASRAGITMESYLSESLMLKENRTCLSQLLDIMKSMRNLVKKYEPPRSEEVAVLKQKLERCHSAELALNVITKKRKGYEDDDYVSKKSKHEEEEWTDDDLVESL
Chain of CDK7/Cyclin H/MAT1 (P51948 whole entry partner): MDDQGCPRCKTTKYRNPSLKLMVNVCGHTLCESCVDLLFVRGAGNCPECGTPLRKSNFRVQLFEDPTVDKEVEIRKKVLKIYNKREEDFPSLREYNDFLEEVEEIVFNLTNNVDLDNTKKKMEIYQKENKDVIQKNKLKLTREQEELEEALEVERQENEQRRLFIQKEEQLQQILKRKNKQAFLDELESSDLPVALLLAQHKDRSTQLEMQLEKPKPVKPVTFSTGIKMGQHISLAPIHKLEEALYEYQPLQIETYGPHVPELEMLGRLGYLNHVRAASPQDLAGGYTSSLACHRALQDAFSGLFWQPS
Experimental: as §1

[4] = target: CDK4/Cyclin D1 (Homo sapiens, UniProt P11802); assay: CDK4/Cyclin D1 in vitro kinase inhibition (Biological Example 1 of WO2022/111621)
Chain of CDK4/Cyclin D1 (P11802 whole entry): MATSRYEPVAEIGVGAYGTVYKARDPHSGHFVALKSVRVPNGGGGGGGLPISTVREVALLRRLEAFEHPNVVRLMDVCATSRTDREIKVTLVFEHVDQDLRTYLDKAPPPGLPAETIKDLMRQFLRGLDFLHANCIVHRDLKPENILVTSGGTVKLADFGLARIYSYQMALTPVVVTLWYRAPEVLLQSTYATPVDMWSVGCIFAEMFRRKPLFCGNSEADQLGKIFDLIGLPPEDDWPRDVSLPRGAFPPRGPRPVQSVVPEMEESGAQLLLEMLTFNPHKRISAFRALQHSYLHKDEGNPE
Chain of CDK4/Cyclin D1 (P24385 whole entry partner): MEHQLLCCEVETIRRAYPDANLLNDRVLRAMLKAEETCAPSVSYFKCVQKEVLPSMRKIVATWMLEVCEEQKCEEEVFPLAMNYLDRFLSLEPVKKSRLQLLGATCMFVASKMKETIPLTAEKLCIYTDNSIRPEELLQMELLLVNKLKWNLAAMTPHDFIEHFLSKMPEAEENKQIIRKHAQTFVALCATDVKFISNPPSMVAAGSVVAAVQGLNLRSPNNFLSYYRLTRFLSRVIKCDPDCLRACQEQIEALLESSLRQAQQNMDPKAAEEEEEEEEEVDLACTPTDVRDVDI
Experimental: as §1

Chain of CDK6/Cyclin D1 (Q00534 whole entry): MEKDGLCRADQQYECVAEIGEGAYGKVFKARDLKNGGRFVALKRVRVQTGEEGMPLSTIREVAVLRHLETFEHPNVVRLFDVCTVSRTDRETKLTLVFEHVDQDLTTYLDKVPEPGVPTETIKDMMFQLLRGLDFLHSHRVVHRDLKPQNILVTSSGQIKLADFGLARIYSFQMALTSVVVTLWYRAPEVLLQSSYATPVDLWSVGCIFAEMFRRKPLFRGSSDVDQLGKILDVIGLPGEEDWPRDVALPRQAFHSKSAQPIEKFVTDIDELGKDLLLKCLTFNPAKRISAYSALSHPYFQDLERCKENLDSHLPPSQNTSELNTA
Chain of CDK6/Cyclin D1 (P24385 whole entry partner): as the sequence (P24385 whole entry partner) above

| IC50 [1] | IC50 [2] | IC50 [3] | IC50 [4] | SMILES |
| --- | --- | --- | --- | --- |
| ≥ 1000 nM | – | – | – | [2H]C([2H])([2H])NS(=O)(=O)c1ccc(Nc2ncc(C(F)(F)F)c(O[C@@H]3CCOC[C@H]3O)n2)cc1 [Compound E3] |
| – | ≥ 1000 nM | ≥ 1000 nM | – | NS(=O)(=O)c1ccc(Nc2ncc(C(F)(F)F)c(O[C@@H]3CCOC[C@@H]3O)n2)cc1 [Compound E7, 4-((4-(((3S,4R)-3-hydroxytetrahydro-2H-pyran-4-yl)oxy)-5-(trifluoromethyl)pyrimidin-2-yl)amino)benzenesulfonamide] |
| ≥ 1000 nM | – | ≥ 1000 nM | ≥ 1000 nM | [2H]C([2H])([2H])NS(=O)(=O)c1ccc(Nc2ncc(C(F)(F)F)c(O[C@H]3CCOC[C@@H]3O)n2)cc1 [Compound E4] |
| ≥ 1000 nM | – | ≥ 1000 nM | ≥ 1000 nM | [2H]C([2H])([2H])NS(=O)(=O)c1ccc(Nc2ncc(C(F)(F)F)c(O[C@H]3CCOC[C@H]3O)n2)cc1 [Compound E2] |
